The nature of series [1]: Chemical stability in phosphate buffer solution (spontaneous hydrolysis), LC-MS/MS. The class given is physicochemical. To be noted: phosphate buffer solution (PBS), 1 µM analyte, 37 °C, incubation 0-120 min, read-out: T 1/2 PBS. As for the experimental part: (§1) The sample was prepared adding 10 µL of spiked solution to 100 µL of tested matrix (PBS or human plasma or rat plasma) in microcentrifuge tubes. The obtained solutions correspond to 1 µM of analyte.
(§2) Each set of samples was incubated in triplicate at four different times, 0, 30, 60, and 120 min at 37 °C. Therefore, the matrix stability profile of each analyte was represented by a batch of 12 samples (4 incubation times ×3 replicates). After the incubation, the samples were added with 300 µL of ISTD solution and centrifuged (room temperature for 5 min at 800 g). The supernatants were transferred in autosampler vials and dried under a gentle stream of nitrogen.
(§3) The dried samples were dissolved in 1.0 mL of 10 mM of formic acid in mQ water:acetonitrile 80:20 solution[28].
(§4) An investigation on the chemical stability of compounds under study in PBS, human and rat plasma was performed for evaluating their susceptibility to spontaneous or enzymatic hydrolysis.
(§5) The stability profiles were obtained by monitoring the variation of analyte concentration at different incubation times in PBS or human or rat plasma samples. Generally, when the substrate concentration was smaller than the Michaelis–Menten constant (KM), the enzymatic degradation rate is described to a first-order kinetics. Therefore, plotting the natural logarithm of the quantitative data versus the incubation time, a linear function can be used and its slope represents the degradation rate constant (k).
(§6) All degradation plots of references and studied compounds were reported in the Supplemental material (SF11–SF26). The half-life of each tested compound was calculated as follows: (4) […]

A short description of series [2]: Stability in human plasma (enzymatic hydrolysis), LC-MS/MS. Type of series: in vitro ADME. To be noted: 1 µM analyte, 37 °C, incubation 0-120 min; for half-life at 1 µM: male, read-out: T 1/2 Human plasma. The protocol: (§7) PBS was prepared by adding 8.01 g L^−1 of NaCl, 0.2 g L^−1 of KCl, 1.78 g L^−1 of Na2HPO4·2H2O, and 0.27 g L^−1 of KH2PO4. Human plasma was collected from healthy volunteer and the rat plasma was collected from Sprague-Dawley male rats; each plasma batch was kept at −80 °C until use.
as §1
Therefore, the matrix stability profile of each analyte was represented by a batch of 12 samples (4 incubation times ×3 replicates). After the incubation, the samples were added with 300 µL of ISTD solution and centrifuged (room temperature for 5 min at 800 g). The supernatants were transferred in autosampler vials and dried under a gentle stream of nitrogen.
as §3, §4, §5

Series [3] in a line: Stability in rat plasma (enzymatic hydrolysis), LC-MS/MS. The settings on record: male, Sprague-Dawley, 1 µM analyte, 37 °C, incubation 0-120 min, read-out: T 1/2 Rat plasma. Type of series: in vitro ADME, Sprague-Dawley male rats. As for the experimental part:
as §7, §1, §2, §3, §4
In order to establish the hydrolytic activity of the employed plasma batches, two reference compounds were tested, following the procedure reported in the section ‘Validation of LC-MS/MS methods’: KEE (half-life <2 h) and enalapril (half-life <0.5 h) to verify the human and rat plasma activity, respectively[32]^,[33].
as §5, §6

Details of series [4]: method as in PMID 28238510, PMID 28113128. To be noted: cited from earlier work.
Details of series [5]: method as in PMID 28238510, PMID 28113128. To be noted: cited from earlier work. This is another data set of the same source.

SMILES strings stand for the structures.

Consider `COc1ccc2c(c1)c(CC(=O)NCCOc1ccc3oc(=O)ccc3c1)c(C)n2C(=O)c1ccc(Cl)cc1` [Compound 1A], for which the half-life at 1 µM in series [1], in series [2] and in series [3] was over 4 h each time.

Turning to `COc1ccc2c(c1)c(CC(=O)NCCOc1ccc3ccc(=O)oc3c1)c(C)n2C(=O)c1ccc(Cl)cc1` [Compound 1B], the half-life at 1 µM in series [1], in series [2] and in series [3] was over 4 h throughout.

Regarding `CC1=C(CC(=O)NCCOc2ccc3oc(=O)ccc3c2)c2cc(F)ccc2/C1=C\c1ccc([S+](C)[O-])cc1` (stereo not shown) [Compound 2A], the half-life at 1 µM in series [1], in series [2] and in series [3] was over 4 h each time.

Regarding `CC1=C(CC(=O)NCCOc2ccc3ccc(=O)oc3c2)c2cc(F)ccc2/C1=C\c1ccc([S+](C)[O-])cc1` (stereo not shown) [Compound 2B], the half-life at 1 µM in series [1], in series [2] and in series [3] was over 4 h in each case.

As to `CC(C(=O)NCCOc1ccc2oc(=O)ccc2c1)c1cccc(C(=O)c2ccccc2)c1` (stereo not shown) [Compound 3A], the half-life at 1 µM in series [1], in series [2] and in series [3] was over 4 h throughout.

In the case of `CC(C(=O)NCCOc1ccc2ccc(=O)oc2c1)c1cccc(C(=O)c2ccccc2)c1` (stereo not shown) [Compound 3B], the half-life at 1 µM in series [1], in series [2] and in series [3] was over 4 h each time.

For `CC(C)Cc1ccc(C(C)C(=O)NCCOc2ccc3oc(=O)ccc3c2)cc1` (stereo not shown) [Compound 4A], the half-life at 1 µM in series [1], in series [2] and in series [3] was over 4 h each time.

Consider `CC(C)Cc1ccc(C(C)C(=O)NCCOc2ccc3ccc(=O)oc3c2)cc1` (stereo not shown) [Compound 4B], for which the half-life at 1 µM in series [1], in series [2] and in series [3] was over 4 h each time.

Turning to `O=C(Cc1ccccc1Nc1c(Cl)cccc1Cl)NCCOc1ccc2oc(=O)ccc2c1` [Compound 5A], the half-life at 1 µM in series [1], in series [2] and in series [3] was over 4 h in each case.

With `O=C(Cc1ccccc1Nc1c(Cl)cccc1Cl)NCCOc1ccc2ccc(=O)oc2c1` [Compound 5B], the half-life at 1 µM in series [1], in series [2] and in series [3] was over 4 h each time.

Take `CC(C(=O)NCCOc1ccc2oc(=O)ccc2c1)c1ccc(-c2ccccc2)c(F)c1` (stereo not shown) [Compound 6A]: the half-life at 1 µM in series [1], in series [2] and in series [3] was over 4 h each time.

Regarding `CC(C(=O)NCCOc1ccc2ccc(=O)oc2c1)c1ccc(-c2ccccc2)c(F)c1` (stereo not shown) [Compound 6B], the half-life at 1 µM in series [1], in series [2] and in series [3] was over 4 h in each case.

Take `O=C(c1ccccc1)c1ccc2n1CCC2C(=O)NCCOc1ccc2oc(=O)ccc2c1` (stereo not shown) [Compound 7A]: the half-life at 1 µM in series [1], in series [2] and in series [3] was over 4 h throughout.

For `O=C(c1ccccc1)c1ccc2n1CCC2C(=O)NCCOc1ccc2ccc(=O)oc2c1` (stereo not shown) [Compound 7B], the half-life at 1 µM in series [1], in series [2] and in series [3] was over 4 h each time.

For `COc1ccc2cc(C(C)C(=O)NCCOc3ccc4oc(=O)ccc4c3)ccc2c1` (stereo not shown) [Compound 8A], the half-life at 1 µM in series [1], in series [2] and in series [3] was over 4 h each time.

Turning to `COc1ccc2cc(C(C)C(=O)NCCOc3ccc4ccc(=O)oc4c3)ccc2c1` (stereo not shown) [Compound 8B], the half-life at 1 µM in series [1], in series [2] and in series [3] was over 4 h each time.

On to `CCOC(=O)[C@H](CCc1ccccc1)N[C@@H](C)C(=O)N1CCC[C@H]1C(=O)O` [Enalapril, enalapril, reference compound], for which the half-life at 1 µM in series [3] turned out to be 0.367 h. In addition, the “half-life (reference compound to verify rat plasma activity)” value in series [4] was under 0.5 h.

For the compound `CCOC(=O)C(C)c1cccc(C(=O)c2ccccc2)c1` (stereo not shown) [KEE, Ketoprofen ethyl ester, reference compound], in series [2], the “T 1/2 Human plasma” value was 1.58 h. For the same compound, in series [5], the “half-life (reference compound to verify human plasma activity)” value was under 2 h.

(Values after paper PMC6010112, “Resolution of co-eluting isomers of anti-inflammatory drugs conjugated to carbonic anhydrase inhibitors from plasma in liquid chromatography by energy-resolved tandem mass spectrometry” (Journal of Enzyme Inhibition and Medicinal Chemistry, 2018).)
